Reference: patent US8173710B2, “Bicyclic sphingosine 1-phosphate analogs” (University of Virginia Patent Foundation, priority 2006, dated 2012)

What was measured:
Heart rate assay = assay type: in vivo; conditions: IV dosing, 3 mg/kg, 1 hour post dosing, vehicle 2% cyclodextrin, conscious mice, FIG. 11
Method: Mice were dosed with compound VIII, FTY720 (intravenous, 3 mg/kg) or vehicle (2% hydroxypropyl beta-cyclodextrin) and heart rate measured at 1 hour post dosing. Heart rate was captured in unrestrained, conscious animals using the ECGenie™ system. The results are illustrated in FIG. 11.

S1P3 receptor = target: T1, S1P3 receptor (Homo sapiens, UniProt Q99500); assay: GTPγS-35 binding assay (broken cell), S1P3; assay type: biochemical
T1 construct: expressed in transfected cells; host or cells: HEK293T cells (crude microsomes)
Method: (§1) This assay illustrates agonist activation of G protein coupled receptors (GPCRs) in isolation. The assay forces expression concomitantly of a recombinant GPCR (e.g., the S1P1-5 receptor) and each of the three subunits (typically, α-2, β-1, or γ-2) of a heterotrimeric G protein in a HEK293T cell by transfecting the cell with four plasmid DNAs encoding the respective proteins. About 60 hours after transfection the cells are harvested, opened, and the nucleus discarded. The crude microsome is prepared from the remainder. Agonist (e.g., S1P) stimulation of the receptor-G protein complex on the microsomes results in the exchange of GTP for GDP on the α-subunit in a dose-dependent manner. The GTP-bound a-subunit is detected using a GTP analog (GTPγS-35), which is a radionuclide (sulfur-35) labeled phosphothioate that is not hydrolyzed to GDP. The microsomes with the adherent G proteins are collected by filtration and the bound GTPγS-35 quantified in a liquid scintillation counter. The assay yields relative potency (EC50 values) and maximum effect (efficacy, Emaxa Antagonist activity is detected as rightward shifts in the agonist dose-response curve in the presence of a fixed amount of antagonist. If the antagonist behaves competitively, the affinity of the receptor/antagonist pair (K1) can be determined. […]

human S1P1 receptor = target: T2, human S1P1 receptor (Homo sapiens, UniProt P21453); assay: GTPγS-35 binding assay (broken cell), S1P1; assay type: biochemical; conditions: FIG. 7, compared with S1P
T2 construct: expressed in transfected cells; host or cells: HEK293T cells (crude microsomes)
Method: as §1

T1 sequence (Q99500 whole entry): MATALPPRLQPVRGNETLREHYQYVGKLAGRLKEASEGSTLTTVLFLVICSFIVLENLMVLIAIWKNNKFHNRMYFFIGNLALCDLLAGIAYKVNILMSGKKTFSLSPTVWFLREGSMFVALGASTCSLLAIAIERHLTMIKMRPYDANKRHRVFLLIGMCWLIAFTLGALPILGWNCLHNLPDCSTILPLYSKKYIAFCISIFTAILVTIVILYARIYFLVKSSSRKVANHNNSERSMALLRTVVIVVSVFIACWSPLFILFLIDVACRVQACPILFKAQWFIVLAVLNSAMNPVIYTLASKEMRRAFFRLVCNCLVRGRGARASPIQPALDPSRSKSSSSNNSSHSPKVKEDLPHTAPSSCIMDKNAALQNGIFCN
T1 sequence (P04899 whole entry partner): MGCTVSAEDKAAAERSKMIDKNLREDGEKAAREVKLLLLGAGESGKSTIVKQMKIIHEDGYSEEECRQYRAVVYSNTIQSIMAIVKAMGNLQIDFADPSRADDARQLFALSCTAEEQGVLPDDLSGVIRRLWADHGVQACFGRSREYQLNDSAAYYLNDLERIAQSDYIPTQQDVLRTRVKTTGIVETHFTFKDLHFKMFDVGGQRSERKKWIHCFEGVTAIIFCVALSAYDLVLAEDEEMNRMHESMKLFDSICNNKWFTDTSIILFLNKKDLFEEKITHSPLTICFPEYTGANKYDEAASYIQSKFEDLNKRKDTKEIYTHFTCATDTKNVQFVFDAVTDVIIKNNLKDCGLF
T1 sequence (P62873 whole entry partner): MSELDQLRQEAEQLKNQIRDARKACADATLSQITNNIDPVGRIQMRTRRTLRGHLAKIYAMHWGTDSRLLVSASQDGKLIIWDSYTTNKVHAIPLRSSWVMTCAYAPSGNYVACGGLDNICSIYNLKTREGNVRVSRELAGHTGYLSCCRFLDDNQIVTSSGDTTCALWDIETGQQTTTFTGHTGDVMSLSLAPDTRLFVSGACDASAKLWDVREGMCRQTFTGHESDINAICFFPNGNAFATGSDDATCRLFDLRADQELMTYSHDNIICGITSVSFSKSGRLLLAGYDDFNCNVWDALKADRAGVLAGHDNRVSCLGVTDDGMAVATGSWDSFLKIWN
T1 sequence (P59768 2-68 partner limits assumed): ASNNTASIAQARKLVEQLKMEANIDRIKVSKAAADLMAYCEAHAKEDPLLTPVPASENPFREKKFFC
T2 sequence (P21453 whole entry): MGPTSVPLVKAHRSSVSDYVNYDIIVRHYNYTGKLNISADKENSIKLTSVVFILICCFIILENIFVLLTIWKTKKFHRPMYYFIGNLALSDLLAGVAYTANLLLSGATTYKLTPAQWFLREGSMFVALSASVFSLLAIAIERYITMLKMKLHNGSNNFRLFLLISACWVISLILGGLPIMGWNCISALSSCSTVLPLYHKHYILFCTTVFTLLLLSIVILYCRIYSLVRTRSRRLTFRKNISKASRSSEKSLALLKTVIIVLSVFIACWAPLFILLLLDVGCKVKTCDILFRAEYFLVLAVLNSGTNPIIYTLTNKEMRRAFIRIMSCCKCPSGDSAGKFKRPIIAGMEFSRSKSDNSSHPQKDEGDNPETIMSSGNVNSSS
T2 sequence (P04899 whole entry partner): as the sequence (P04899 whole entry partner) above
T2 sequence (P62873 whole entry partner): as the sequence (P62873 whole entry partner) above
T2 sequence (P59768 2-68 partner limits assumed): as the sequence (P59768 2-68 partner limits assumed) above

SMILES	effect on the heart rate of mice (Heart rate assay)	agonist activity at the S1P3 receptor (S1P3 receptor; FIG. 8, XXVI and XXVII tested as mixture of phosphorylated forms of compound VIII)	potency at S1P3 relative to S1P (S1P3 receptor; compared with S1P)	potency at S1P1 relative to S1P (human S1P1 receptor)
CCCCCCCCc1ccc2c(c1)CCC(C(N)(CO)CO)C2 (stereo not shown) [VIII, 2-Amino-2-(6-octyl-1,2,3,4-tetrahydro-naphthalen-2-yl)-propane-1,3-diol]	no effect	–	–	–
CCCCCCCCc1ccc2c(c1)CCC(C(N)(COP(=O)(O)O)COP(=O)(O)O)C2 (stereo not shown) [XXVII, Phosphoric acid mono-[2-amino-2-(6-octyl-1,2,3,4-tetrahydro-naphthalen-2-yl)-3-phosphonooxypropyl] ester]	–	low potency, partial agonists	less potent	more potent
